Measured values: patent US7528225B2, “Peptide epitopes of apolipoprotein B” (Forskarpapatent I Syd, priority 2001, dated 2009)
Entries after “also recorded” stand apart in the source; their conditions may differ.

Tests used:
[1] = tested on: atherosclerosis in apo E knockout mice; assay: Peptide immunization of Apo E (−/−) mice on high cholesterol diet: atherosclerotic plaque size and composition; details: for Effect on atherosclerosis in the aorta: immunization of apo E knockout mice with single peptide sequence or mixture (Table B); for Atherosclerotic plaque in the descending aorta, en face oil red O, in comparison to control (in words): Apo E (−/−) mice vs Alum control; for Total plaque size in aortic sinus: Apo E (−/−) mice, sacrifice at 25 weeks; for Total plaque size in aortic sinus / mean collagen content in the aortic sinus plaques / % of plaque in aorta (flat prep.) / Oil red O (+) area (% of aortic sinus plaque) / Aortic arch plaque size: mean ± Std; for mean collagen content in the aortic sinus plaques: Trichrome staining; for % of plaque in aorta (flat prep.): descending thoracic and abdominal aorta, en face, oil red O; for Oil red O (+) area (% of aortic sinus plaque): lipid content of aortic sinus plaque
Protocol: Apo E (−/−) mice received subcutaneous primary immunization at 6-7 weeks of age, followed by an intra-peritoneal booster 3 weeks later. Mice were fed high cholesterol diet from the onset of immunization and continued until sacrifice at the age of 25 weeks.
Alum was used as immunoadjuvant and mixed with peptide conjugate with 1:1 dilution in volume. The amount of peptide in each immunization was 33 μg/100 μl per injection.
Apo E (−/−) mice from the Jackson Laboratories (Bar Harbor, Me.) received subcutaneous primary immunization at 6-7 weeks of age, followed by an intra-peritoneal booster 3 weeks later. Mice were fed high cholesterol diet from the onset of immunization and continued until sacrifice at the age of 25 weeks. Blood samples were collected 2 weeks after booster and at the time of sacrifice. Mice receiving Alum served as control. […] At the time of sacrifice, mice were anesthetized by inhalation Enflurane. Plasma was obtained by retro-orbital bleeding prior to sacrifice.
To evaluate the effect of peptide immunization on atherosclerosis formation, the plaque size at aortic sinus was assessed, aortic arch and descending thoracic and abdominal aorta. After the heart and aortic tree were perfused with normal saline at physiological pressure, the heart and proximal aorta were excised and embedded in OCT compound (Tissue-Tek) and frozen sectioned. Serial 6-μm-thick sections were collected from the appearance of at least 2 aortic valves to the disappearance of the aortic valve leaflets for aortic sinus plaque evaluation. Typically 3 consecutive sections were on one slide and a total of 25-30 slides were collected from one mouse and every fifth slide was grouped for staining. Ascending aorta and aortic arches upto left subclavian artery were also sectioned and processed similarly. Descending thoracic and abdominal aorta were processed separately for en face evaluation of plaque formation after oil red O staining.
Chicken egg albumin (Sigma) in a concentration of 0.8 g/ml water was mixed 1:1 with glycerol. Sodium azide was added to make a final concentration of sodium azide 0.2%. After descending thoracic and abdominal aorta was cleaned off surrounding tissue and fat, the segment of aorta from left subclavian artery to the level of renal artery was then carefully removed for overnight fixation in Histochoice (Amresco). Aorta was then carefully opened longitudinally and placed with luminal side up on a slide freshly coated with egg albumin solution. After albumin solution became dry, the aorta was stained with Oil red O to assess the extent of atherosclerosis with computer-assisted histomorphometry.

Apo E (−/−) mice = assay: Antibody titer against immunized peptide after immunization (mouse serum ELISA); assay type: in vivo; details: mouse serum 1/50; immunized group; mean ± Std
Protocol: Antibody titer measurement. To measure the antibody response after peptide immunization, an ELISA was developed. Antibody titer against immunized peptide was measured using blood collected at 2 weeks after booster and at sacrifice. Antibody response against 3 peptides was also determined in Alum group at the same time-points. In brief, native synthetic peptides diluted in PBS pH 7.4 (20 μg/ml) were absorbed to microtiter plate wells (Nunc MaxiSorp, Nunc, Roskilde, Denmark) in an overnight incubation at 4° C. […] After rinsing, deposition of antibodies directed to the peptides was detected by using biotinylated rabbit anti-mouse Ig antibodies (Dako A/S, Glostrup, Denmark) appropriately diluted in TBS-T. After another incubation for 2 h at room temperature the plates were washed and the bound biotinylated antibodies were detected by alkaline phosphatase conjugated streptavidin (Sigma), incubated for 2 h at room temperature. Using phosphatase substrate kit (Pierce) developed the colour reaction and the absorbance at 405 nm was measured after 1 h of incubation at room temperature. Mean values were calculated after the background was subtracted.

VISIPRLQAEARSEILAHWS [Peptide 74]
Effect on atherosclerosis in the aorta [1]: −31.0%

EEEMLENVSLVCPKDATRFK [Peptide 1]
Increase of antibody titer against immunized peptide after immunization (Apo E (−/−) mice): 6.1±3.1 fold
Atherosclerotic plaque in the descending aorta, en face oil red O, in comparison to control (in words) ([1]; listed as Peptide No 1): did not produce a significant reduction in atherosclerosis
Total plaque size in aortic sinus [1]: 0.48 ± 0.14 mm^2
mean collagen content in the aortic sinus plaques [1]: 35.6±8.5%
% of plaque in aorta (flat prep.) [1]: 17 ± 4.3%
Effect on atherosclerosis in the aorta [1]: −15.4%
Oil red O (+) area (% of aortic sinus plaque) [1]: 32.0 ± 8.1%
Aortic arch plaque size [1]: 0.054 ± 0.027 mm^2
Effect of immunisation on the development of atherosclerosis (in words) ([1]; summary statement): lacks total effect

FPDLGQEVALNANTKNQKIR [Peptide 240]
Effect on atherosclerosis in the aorta [1]: 0%

HTFLIYITELLKKLQSTTVM [Peptide 301]
Atherosclerotic plaque in the descending aorta, en face oil red O, in comparison to control (in words) [1]: substantially reduced atherosclerosis
Total plaque size in aortic sinus [1]: 0.46 ± 0.16 mm^2
% of plaque in aorta (flat prep.) [1]: 8.9 ± 2.2 %
Effect on atherosclerosis in the aorta [1]: −55.2%
Oil red O (+) area (% of aortic sinus plaque) [1]: 23.8 ± 4.1%
Aortic arch plaque size [1]: 0.050 ± 0.024 mm^2

IEIGLEGKGFEPTLEALFGK [Peptide 45]
Effect on atherosclerosis in the aorta [1]: −47.4%

ATRFKHLRKYTYNYQAQSSS [Peptide 2]
Increase of antibody titer against immunized peptide after immunization (Apo E (−/−) mice): 2.4±1.0 fold
Atherosclerotic plaque in the descending aorta, en face oil red O, in comparison to control (in words) ([1]; listed as peptide No. 2): substantially reduced atherosclerosis; also recorded: significantly reduced atherosclerotic burden
mean collagen content in the aortic sinus plaques [1]: 40.0±7.7%
Effect on atherosclerosis in the aorta [1]: −67.7%
macrophage infiltration in the aortic sinus plaques (MOMA-2) ([1]; immunohistochemistry): significantly reduced macrophage infiltration

KTTKQSFDLSVKAQYKKNKH [Peptide 210]
Effect on atherosclerosis in the aorta [1]: −57.9%
